Structures are written as SMILES. Like-named read-outs stand apart in the source and are kept apart here.

The record followed here is US12187722B2, “Small molecule inhibitors of TEAD transcription factors” (The General Hospital Corporation, priority 2019, dated 2025).

The target in assay [1] is T1, TEAD2 (Homo sapiens (Human), UniProt Q15562). In words: CMP assay (CPM fluorescence detection of free CoA). Type of assay: biochemical. The procedure: 7-Diethylamino-3-(4′-Maleimidylphenyl)-4-Methylcoumarin (CPM), which reacts with thiol of CoA liberated in the enzymatic reaction, and gives fluorescent signal (excitation ˜350-380, emission-460-480). The assay detects the product (free CoA) which is produced from palmitoyl-CoA as a method to detect the enzymatic activity. Test compounds that inhibit TEAD activity are therefore able to block the CMP fluorescent signal.
TEAD2/4 protein (10 μL of a 50 ng/μL solution) and a solution the test compound (0.5 μL, variable concentration) were pre-incubated for 30 min at r.t. A mixture prepared from MES pH 6.4 buffer (6.5 μL of a 50 mM solution), EDTA (1 μL of a 20 mM solution), palmitoyl-CoA (1 μL of a 20 μM solution), and 7-diethylamino-3-(4′-maleimidylphenyl)-4-methylcoumarin (1 μL of a 10 μM solution) was added and the resulting mixture was mixed well using a pipette. The solution was then incubated at r.t. for 30-120 min. in the dark, and fluorescence was detected at […] every 30 min. until the fluorescence signal is saturated. An IC50 for the ability of the compound to inhibit fluorescence is calculated from the results.

Assay [2] concerns the target T1, TEAD2. The assay is described as follows: In vitro palmitoylation (TEAD2 autopalmitoylation, streptavidin blot). Format: biochemical. Conditions: compound at 10 μM. In outline:
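Autopalmitoylation read by streptavidin-HRP Western blot after CuSO4/TBTA/TCEP click with 100 μM biotin-azide, 1 h RT, with His-HRP probed separately. Before that, TEAD2 protein (GST or His6, 500 ng) given compound for 15 min then 1 μM alkyne palmitoyl-CoA for 30 min; percent inhibition versus DMSO-treated samples.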

Where [3] appears, read: Table 2, read-out: IC50 μM (CMP assay).
Where [4] appears, read: Table 3, unit inferred, read-out: TEAD2 palmitoylation IC50.

T1 sequence (Q15562 whole entry): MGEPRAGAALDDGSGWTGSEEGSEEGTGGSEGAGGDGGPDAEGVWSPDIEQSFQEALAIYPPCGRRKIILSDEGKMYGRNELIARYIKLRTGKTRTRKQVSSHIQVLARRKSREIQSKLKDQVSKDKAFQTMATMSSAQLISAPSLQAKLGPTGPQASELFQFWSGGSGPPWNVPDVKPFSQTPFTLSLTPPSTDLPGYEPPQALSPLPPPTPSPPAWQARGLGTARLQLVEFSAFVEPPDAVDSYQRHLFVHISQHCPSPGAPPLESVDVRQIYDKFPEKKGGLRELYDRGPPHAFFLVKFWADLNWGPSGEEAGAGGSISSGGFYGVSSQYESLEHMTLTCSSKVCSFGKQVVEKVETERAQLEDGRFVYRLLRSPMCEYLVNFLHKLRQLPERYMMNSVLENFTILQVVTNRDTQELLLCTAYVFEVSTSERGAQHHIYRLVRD

Usually IC50 stands for the concentration needed to halve the response being measured. One may read the inhibition as the drop in the measured response relative to a control, in per cent. Read a high inhibition as a response far below the control. Consider `C=CC(=O)c1ccccc1Nc1cccc(Nc2ccc(C34CC5CC(CC(C5)C3)C4)cc2)c1`, for which the IC50 at TEAD2 [1] (CMP assay, read-out: CMP IC50) was 5.09 µM. In addition, the inhibition at 10 µM against TEAD2 [2] is 70%.

Turning to `CN(c1ccc(Oc2ccc(C34CC5CC(CC(C5)C3)C4)cc2Cl)cc1)c1ccccc1C(=O)O` [Compound 168], the IC50 at TEAD2 [1] (setting [3]) is 0.173 µM. Further, the inhibition at 10 µM at TEAD2 [2] (Table 2) turned out to be 97%.

With `CC12CC3CC(C)(C1)CC(c1ccc(Oc4ccc(Nc5ccccc5C(=O)O)cc4)c(Cl)c1)(C3)C2` [Compound 253], at TEAD2 [1] (setting [3]), the 50% inhibitory concentration (IC50) was 0.099 µM. This compound also came in with an inhibition at 10 µM on TEAD2 [2] (Table 2) of 100%.

As to `COc1ccc(Nc2ccc(N(C)c3ccc(C4CCCCC4)cc3)cc2F)c(C(=O)O)c1` [CP-549], the IC50 on TEAD2 [1] (setting [4]) was found to be 2.4 µM. The same compound yielded an inhibition at 10 µM on TEAD2 [2] (Table 3) of 85%.

`COc1ccc(Nc2ccc(N(C)c3ccc(C)cc3)cc2)c(C(=O)O)c1` [CP-554]: the half-maximal inhibitory concentration (IC50) at TEAD2 [1] (setting [4]) stood at 0.01 µM. This compound also had an inhibition at 10 µM on TEAD2 [2] (Table 3) of 96%.

On to `COc1ccc(Nc2ccc(N(C)c3ccc(C4CC5CCC4C5)cc3)cc2)c(C(=O)O)c1` (stereo not shown) [CP-538], for which, on TEAD2 [1] (setting [4]), the IC50 came to 0.68 µM. The compound further yielded an inhibition at 10 µM at TEAD2 [2] (Table 3) of 85%.

Regarding `COc1ccc(Nc2ccc(N(C)c3ccc(OC(F)(F)F)cc3)cc2F)c(C(=O)O)c1` [CP-589], the IC50 at TEAD2 [1] (setting [4]) is 1.57 µM. This compound displayed an inhibition at 10 µM against TEAD2 [2] (Table 3) of 97%.

Turning to `COc1ccc(Nc2ccc(N(C)c3ccc(OC(F)(F)F)cc3)cc2)c(C(=O)O)c1` [CP-548], the IC50 on TEAD2 [1] (setting [4]) was 0.45 µM. For the same compound, the inhibition at 10 µM on TEAD2 [2] (Table 3) came to 86%.
